Data: patent US9072698B2, “Method for screening anti-cancer compounds inhibiting function of TM4SF5 and anti-cancer composition containing chalcone compounds” (Seoul National University Industry Foundation, priority 2006, dated 2015)
≈ marks a conversion by molar mass, not a printed value.

Tests used:
Assay type in all cases: cell-based
[1] = system: A-549 (lung carcinoma); assay: In vitro cytotoxicity, sulforhodamine B (SRB) method, A-549; conditions: Homo sapiens, A549; A-549, SRB method; read-out: cytotoxicity (ED50) A-549
Method: (§1) The chalcone derivatives of the present invention were evaluated for in vitro cytotoxicity against human carcinoma cell lines using a sulforhodamine B (SRB) method, which was developed in 1989 by the National Cancer Institute (NCI), USA.
(§2) HCT15 (colon adenocarcinoma; ATCC CCL-225), PC-3 (prostate adenocarcinoma; ATCC CRL-1435), and A-549 (lung carcinoma; ATCC CCL-185) cell lines were used. All of these carcinoma cells were sub-cultured at the Korean Research Institute of Bioscience and Biotechnology (KRIBB), Korea.
(§3) The human carcinoma cell lines were cultured in 10% FCS-containing RPMI 1640 medium (Gibco Cat. No. 31800) in an incubator at 37° C. under 5% CO2, and sub-cultured twice per week.
(§4) Cells were detached from the attached surface using 0.25% Trypsin (Sigma) and 3 mM CDTA (1,2-cyclohexane diamine tetraacetic acid, Sigma) in phosphate buffered saline (PBS, Sigma).
(§5) Compounds to be tested (the chalcone derivatives set forth in Table 1) were dissolved in a small amount of dimethylsulfoxide (DMSO, Sigma), and diluted in culture medium to a desired concentration. The final concentration of DMSO was less than 0.5%. The diluted compounds (final concentration: 30, 10, 3, 1 and 0.3 μg/ml) were sterilized through a 0.22-μm microfilter (Millipore). The cytotoxicity of the compounds to human carcinoma cell lines was assessed using a typical SRB method.

[2] = system: HCT15 (colon adenocarcinoma); assay: In vitro cytotoxicity, sulforhodamine B (SRB) method, HCT15; conditions: Homo sapiens; HCT-15, SRB method; read-out: cytotoxicity (ED50) HCT-15
Method: as §1, §2, §3, §4, §5

[3] = system: PC-3 (prostate adenocarcinoma); assay: In vitro cytotoxicity, sulforhodamine B (SRB) method, PC-3; conditions: Homo sapiens; PC-3, SRB method; read-out: cytotoxicity (ED50) PC-3
Method: as §1, §2, §3, §4, §5

O=C(/C=C/c1cc(O)ccc1O)c1ccccc1NS(=O)(=O)c1ccc(O)cc1 [Compound 59, 2′-(p-hydroxybenzenesulfonylamino)-2,5-dihydroxychalcone]
IC50 [1]: 13 µg/mL (≈ 31.6 µM)
IC50 [2]: 9 µg/mL (≈ 21.9 µM)
IC50 [3]: 20 µg/mL (≈ 48.6 µM)

O=C(/C=C/c1ccc(O)cc1)c1cccc(NS(=O)(=O)c2ccc(O)cc2)c1 [Compound 9, 3′-(p-hydroxybenzenesulfonylamino)-4-hydroxychalcone]
IC50 [1]: 40 µg/mL (≈ 101 µM)
IC50 [2]: 24 µg/mL (≈ 60.7 µM)
IC50 [3]: 31 µg/mL (≈ 78.4 µM)

O=C(/C=C/c1cc(O)ccc1O)c1ccc(OS(=O)(=O)c2ccc(O)cc2)cc1 [Compound 93, 4′-(p-hydroxybenzenesulfonate)-2,5-dihydroxychalcone]
IC50 [1]: 8 µg/mL (≈ 19.4 µM)
IC50 [2]: 6 µg/mL (≈ 14.5 µM)
IC50 [3]: 14 µg/mL (≈ 33.9 µM)

Cc1ccc(S(=O)(=O)Nc2ccc(C(=O)/C=C/c3ccc(O)cc3Cl)cc2)cc1 [Compound 83, 4′-(p-toluenebenzensulfonylamino)-2-chloro-4-hydroxychalcone]
IC50 [1]: 11 µg/mL (≈ 25.7 µM)
IC50 [2]: 15 µg/mL (≈ 35.1 µM)
IC50 [3]: 14 µg/mL (≈ 32.7 µM)

O=C(/C=C/c1ccc(O)cc1)c1ccc(OS(=O)(=O)c2cccc(F)c2)cc1 [Compound 37, 4′-(m-fluorobenzenesulfonate)-4-hydroxychalcone]
IC50 [1]: 37 µg/mL (≈ 92.9 µM)
IC50 [2]: 34 µg/mL (≈ 85.3 µM)
IC50 [3]: 27 µg/mL (≈ 67.8 µM)

O=C(/C=C/c1ccccc1O)c1cccc(NS(=O)(=O)c2cccc(O)c2)c1 [Compound 20, 3′-(m-hydroxybenzenesulfonylamino)-2-hydroxychalcone]
IC50 [1]: 35 µg/mL (≈ 88.5 µM)
IC50 [2]: 40 µg/mL (≈ 101 µM)
IC50 [3]: 39 µg/mL (≈ 98.6 µM)

Nc1ccccc1S(=O)(=O)Nc1ccc(C(=O)/C=C/c2ccc(O)cc2)cc1 [Compound 32, 4′-(o-aminobenzensulfonylamino)-4-hydroxychalcone]
IC50 [1]: 45 µg/mL (≈ 114 µM)
IC50 [2]: 47 µg/mL (≈ 119 µM)
IC50 [3]: 41 µg/mL (≈ 104 µM)

O=C(/C=C/c1cc(O)ccc1O)c1ccccc1NS(=O)(=O)c1cccc(O)c1 [Compound 71, 2′-(m-hydroxybenzenesulfonylamino)-2,5-dihydroxychalcone]
IC50 [1]: 7 µg/mL (≈ 17 µM)
IC50 [2]: 12 µg/mL (≈ 29.2 µM)
IC50 [3]: 24 µg/mL (≈ 58.3 µM)

Cc1ccc(S(=O)(=O)Nc2ccc(C(=O)/C=C/c3cc(O)ccc3O)cc2)cc1 [Compound 45, 4′-(p-toluenesulfonylamino)-2,5-dihydroxychalcone]
IC50 [1]: 12 µg/mL (≈ 29.3 µM)
IC50 [2]: 11 µg/mL (≈ 26.9 µM)
IC50 [3]: 14 µg/mL (≈ 34.2 µM)

O=C(/C=C/c1ccccc1O)c1ccc(OS(=O)(=O)c2ccc(O)cc2)cc1 [Compound 86, 4′-(p-hydroxybenzenesulfonate)-2-hydroxychalcone]
IC50 [1]: 30 µg/mL (≈ 75.7 µM)
IC50 [2]: 26 µg/mL (≈ 65.6 µM)
IC50 [3]: 34 µg/mL (≈ 85.8 µM)

O=C(/C=C/c1ccc(O)c(O)c1)c1ccccc1NS(=O)(=O)c1cccc(O)c1 [Compound 68, 2′-(m-hydroxybenzenesulfonylamino)-3,4-dihydroxychalcone]
IC50 [1]: 8 µg/mL (≈ 19.4 µM)
IC50 [2]: 6 µg/mL (≈ 14.6 µM)
IC50 [3]: 10 µg/mL (≈ 24.3 µM)

O=C(/C=C/c1ccc(O)c(O)c1)c1ccc(NS(=O)(=O)c2ccc(F)cc2)cc1 [Compound 72, 4′-(p-fluorobenzensulfonylamino)-3,4-dihydroxychalcone]
IC50 [1]: 11 µg/mL (≈ 26.6 µM)
IC50 [2]: 10 µg/mL (≈ 24.2 µM)
IC50 [3]: 8 µg/mL (≈ 19.4 µM)

O=C(/C=C/c1cccc(O)c1)c1ccc(OS(=O)(=O)c2ccc(O)cc2)cc1 [Compound 85, 4′-(p-hydroxybenzenesulfonate)-3-hydroxychalcone]
IC50 [1]: 33 µg/mL (≈ 83.2 µM)
IC50 [2]: 29 µg/mL (≈ 73.2 µM)
IC50 [3]: 28 µg/mL (≈ 70.6 µM)

O=C(/C=C/c1ccc(O)cc1)c1ccc(OS(=O)(=O)c2ccccc2)cc1 [Compound 40, 4′-(benzenesulfonate)-4-hydroxychalcone]
IC50 [1]: 30 µg/mL
IC50 [2]: 31 µg/mL
IC50 [3]: 39 µg/mL

Cc1ccc(S(=O)(=O)Nc2ccccc2C(=O)/C=C/c2ccc(O)cc2)cc1 [Compound 5, 2′-(p-toluenesulfonylamino)-4-hydroxychalcone]
IC50 [1]: 40 µg/mL (≈ 102 µM)
IC50 [2]: 42 µg/mL (≈ 107 µM)
IC50 [3]: 47 µg/mL (≈ 119 µM)

Cc1ccc(S(=O)(=O)Nc2ccc(C(=O)/C=C/c3cccc(O)c3)cc2)cc1 [Compound 2, 4′-(p-toluenesulfonylamino)-3-hydroxychalcone]
IC50 [1]: 36 µg/mL (≈ 91.5 µM)
IC50 [2]: 37 µg/mL (≈ 94 µM)
IC50 [3]: 39 µg/mL (≈ 99.1 µM)

O=C(/C=C/c1cc(O)ccc1O)c1ccc(NS(=O)(=O)c2ccc(O)cc2)cc1 [Compound 51, 4′-(p-hydroxybenzenesulfonylamino)-2,5-dihydroxychalcone]
IC50 [1]: 13 µg/mL (≈ 31.6 µM)
IC50 [2]: 6 µg/mL (≈ 14.6 µM)
IC50 [3]: 11 µg/mL (≈ 26.7 µM)

O=C(/C=C/c1ccc(O)cc1)c1ccc(NS(=O)(=O)c2cccc([N+](=O)[O-])c2)cc1 [Compound 28, 4′-(m-nitrobenzensulfonylamino)-4-hydroxychalcone]
IC50 [1]: 59 µg/mL (≈ 139 µM)
IC50 [2]: 54 µg/mL (≈ 127 µM)
IC50 [3]: 57 µg/mL (≈ 134 µM)
